Test results published in US6825165B1, “Betacellulin modification” (Takeda Chemical Industries, Ltd., priority 1998, dated 2004).
No end group written: not given here.

Assays:
[1] = test system: 3T3 A31-714 Clone 4 cells; assay: Cell growth promoting activity using 3T3 cells (3H-thymidine uptake), Example 25; type: cell-based, mouse; details: 3H-thymidine uptake into 3T3 A31-714 Clone 4; 100% is the maximum uptake of the 80-residue betacellulin
Experimental: The cell growth promoting activity was assayed by means of the ^3H-thymidine uptake into stationary 3T3 A31-714 Clone 4 (International Journal of Cancer, 12:463 (1973)) as described in Molecular Cell Biology, 8:588 (1988).
100 μL 3T3 A31-714 Clone 4 suspended to 1000 cells/mL using Dulbecco's modified Eagle MEM medium containing 5% bovine serum were seeded to 96 well plates and cultured for a day at 37° C. in carbon dioxide gas incubators (5% carbon dioxide gas, 95% air). 75 μL of supernatant was taken, and 100 μL of serum-free Dulbecco's modified Eagle MEM medium was added to adjust the serum concentration to 1%. Two more days of culture was followed by the addition of varying concentrations of the hBTC50, Mutein A, or Mutein B prepared in the above examples. 16 hours after these had been added, ^3H-thymidine (Amersham Pharmacia Biotech) was added in an amount of 0.25 μCi/well, after 4 hours the cells were washed 3 times with PBS, 100 μL of 5% SDS was added, and the cells were lysed. The cell lysate was transferred to scintillation vials, 1 mL of Scintillator A (Wako Pure Chemicals) was added, and the uptake of ^3H-thymidine into the cellwas assayed with a scintillation counter.

AR42J cells = assay: β cell differentiation promoting activity using AR42J cells (anti-insulin immunofluorescence), Example 26; type: cell-based; details: 5 days incubation; for Differentiation into insulin-producing β cells (stained cells under fluorescent microscope): anti-insulin antibody/FITC staining; for Incidence of insulin-producing cells: comparison between the proteins
Experimental: Cells of the AR42J cell line derived from pancreatic cancer induced by chemical carcinogens (Christophe, Am. J. Physiol., 266: G963 (1994)) were suspended to a concentration of 10^5 cells/mL in Dulbecco's modified Eagle MEM medium containing 10% fetal calf serum and one of hBTC50, Mutein A, Mutein B, or the 80-residue betacellulin (hBTC80) prepared in accordance with the method in Japanese Unexamined Patent Application (Kokai) H10-191989. 500 μL of these suspensions was inoculated on chamber slides and incubated for 5 days at 37° C. in carbon dioxide gas incubators (5% carbon dioxide gas, 95% air). After 5 days, the cells were washed once with PBS, fixed in 10% formaldehyde, and treated for 5 min with 0.1% Triton X-100. Block Ace (Snow Brand, Japan) was then added for 40 minutes of blocking at room temperature. Anti-insulin antibodies (by Advanced Immunochemicals) diluted with 10% Block Ace were added, and reacted for 40 minutes at room temperature. 0.1% Triton X-100 was added, the reaction solution was allowed to stand for 5 minutes at room temperature, and the cells were then washed three times with PBS. FITC (fluorescein isothiocyanate) labeled anti-mouse IgG antibodies (Cappel) diluted with 10% Block Ace were added, and a reaction was brought about for 40 minutes. 0.1% Triton X-100 was added, the reaction solution was allowed to stand for 5 minutes, the cells were then washed three times with PBS, and they were then observed under a fluorescent microscope.

[2] = test system: PLAP expression AR42J cells; assay: β cell differentiation promoting activity using PLAP expression AR42J cells (AR71-104 clone), Example 27; type: cell-based; details: 5 days, A405, 100% is the maximum absorbance when hBTC50 was added
Experimental: The differentiation promoting activity into β cells was also determined using AR42J cells transformed with the vector having alkaline phosphatase which had been ligated as a reporter downstream of the insulin promoter. Specifically, cells which have differentiated into β cells by addition of betacellulin produce alkaline phosphatase. As a result, by assaying the alkaline phosphatase activity, the differentiation promoting activity into β cells can be quantitatively assayed.
Cells of each clone were seeded on 24-well plates and cultured for 4 days with and without the addition of 20 ng/mL 80-residue BTC, the supernatant was collected and heat treated for 30 minutes at 65° C., and the alkaline phosphatase activity in the media was then assayed. Clones showing increased alkaline phosphatase activity with the addition of 80-residue betacellulin were selected. The AR71-104 clone was used below.
PLAP expression AR42J cells constructed in 3-2) were suspended to a concentration of 3×10^4 cells/mL in Dulbecco's modified Eagle MEM medium containing 10% fetal calf serum and on of varying concentrations of the hBTC50 or Mutein A or B prepared above. […] The samples were held for 10 minutes at 37° C., and 10 μL of 20 mg/mL p-nitrophenylphosphoric acid (Sigma) was added, a reaction was brought about for 16 hours at 37° C., and the absorbance at 405 nm (A405) was determined.

Row | Substance | cell growth promoting activity ED50 [1] [nM] | Differentiation into insulin-producing β cells (stained cells under fluorescent microscope) (AR42J cells) | Incidence of insulin-producing cells (AR42J cells) | activity inducing differentiation to β cells ED50 [2] [nM]
1 | Mutein B: hBTC50 in which seven N terminal residues were substituted with five corresponding EGF residues; SEQ ID NO: 45 (NSDSECPKQYKHYCIKGRCRFVVAEQTPSCVCDEGYIGARCERVDLFY; ends and bridges not checked; cysteine pairing not given here) | >10.0 | cells which had differentiated into insulin-producing β cells, were found | no differences in the incidence of insulin-producing cells | 0.7
2 | Mutein A: hBTC50 with 3 amino acids (Asn, Pro, Ser) of the heregulin sequence inserted between Cys3-Cys4; SEQ ID NO: 44 (RKGHFSRCPKQYKHYCIKGRCRFVVAEQNPSTPSCVCDEGYIGARCERVDLFY; ends and bridges not checked; cysteine pairing not given here) | 0.6 | cells which had differentiated into insulin-producing β cells, were found | no differences in the incidence of insulin-producing cells | 0.5
